# According to US11723361B2, “Antimicrobial composition having efficacy against endospores” (Next Science IP Holdings Pty Ltd, priority 2015, dated 2023):
# Experiment: Peracetic acid titrations (pH)
# Assay type: physicochemical
# Experimental: Two peracetic acid solutions were prepared by adding distilled water to a flask containing peracetic acid. The concentration of one of the solutions was 5% (w/v) while that of the other was 10% (w/v). The calculated effective solute concentrations for these solutions were 1.97 and 3.95 Osm/L, respectively.
# To a 50 mL beaker was added 20 mL distilled water. A cleaned, rinsed and dried probe from a calibrated, temperature compensating pH meter was lowered into the beaker. Sequential aliquots of the peracetic acid solution then were added to the beaker, with pH readings after each. The titrations were performed at room temperature.
smiles,measurement,setting,value
"CC(=O)OO [Peracetic acid, peracetic acid]",pH of water after addition,1 mL (5% by volume) of either 5% or 10% (w/v) solution,below 2
same,pH,"5% (w/v) solution, 0.25 mL added to 20 mL distilled water, room temperature",2.42
same,pH,"5% (w/v) solution, 0.50 mL added to 20 mL distilled water, room temperature",2.17
same,pH,"5% (w/v) solution, 0.75 mL added to 20 mL distilled water, room temperature",2.00
same,pH,"5% (w/v) solution, 1.00 mL added to 20 mL distilled water, room temperature",1.89
same,pH,"5% (w/v) solution, 1.25 mL added to 20 mL distilled water, room temperature",1.80
same,pH,"5% (w/v) solution, 1.50 mL added to 20 mL distilled water, room temperature",1.74
same,pH,"5% (w/v) solution, 1.75 mL added to 20 mL distilled water, room temperature",1.68
same,pH,"5% (w/v) solution, 2.00 mL added to 20 mL distilled water, room temperature",1.59
same,pH,"5% (w/v) solution, 2.25 mL added to 20 mL distilled water, room temperature",1.56
same,pH,"5% (w/v) solution, 2.50 mL added to 20 mL distilled water, room temperature",1.53
same,pH,"5% (w/v) solution, 2.75 mL added to 20 mL distilled water, room temperature",1.48
same,pH,"5% (w/v) solution, 3.00 mL added to 20 mL distilled water, room temperature",1.45
same,pH,"5% (w/v) solution, 3.25 mL added to 20 mL distilled water, room temperature",1.42
same,pH,"5% (w/v) solution, 3.50 mL added to 20 mL distilled water, room temperature",1.41
same,pH,"5% (w/v) solution, 3.75 mL added to 20 mL distilled water, room temperature",1.38
same,pH,"5% (w/v) solution, 4.00 mL added to 20 mL distilled water, room temperature",1.34
same,pH,"5% (w/v) solution, 4.25 mL added to 20 mL distilled water, room temperature",1.30
same,pH,"5% (w/v) solution, 4.50 mL added to 20 mL distilled water, room temperature",1.28
same,pH,"5% (w/v) solution, 4.75 mL added to 20 mL distilled water, room temperature",1.26
same,pH,"5% (w/v) solution, 5.00 mL added to 20 mL distilled water, room temperature",1.25
same,pH,"10% (w/v) solution, 0.1 mL added to 20 mL distilled water, room temperature",2.74
same,pH,"10% (w/v) solution, 0.2 mL added to 20 mL distilled water, room temperature",2.48
same,pH,"10% (w/v) solution, 0.3 mL added to 20 mL distilled water, room temperature",2.33
same,pH,"10% (w/v) solution, 0.4 mL added to 20 mL distilled water, room temperature",2.22
same,pH,"10% (w/v) solution, 0.5 mL added to 20 mL distilled water, room temperature",2.14
same,pH,"10% (w/v) solution, 0.6 mL added to 20 mL distilled water, room temperature",2.07
same,pH,"10% (w/v) solution, 0.7 mL added to 20 mL distilled water, room temperature",2.00
same,pH,"10% (w/v) solution, 0.8 mL added to 20 mL distilled water, room temperature",1.95
same,pH,"10% (w/v) solution, 0.9 mL added to 20 mL distilled water, room temperature",1.91
same,pH,"10% (w/v) solution, 1.0 mL added to 20 mL distilled water, room temperature",1.86
same,pH,"10% (w/v) solution, 1.1 mL added to 20 mL distilled water, room temperature",1.83
same,pH,"10% (w/v) solution, 1.2 mL added to 20 mL distilled water, room temperature",1.79
same,pH,"10% (w/v) solution, 1.3 mL added to 20 mL distilled water, room temperature",1.76
same,pH,"10% (w/v) solution, 1.4 mL added to 20 mL distilled water, room temperature",1.73
same,pH,"10% (w/v) solution, 1.5 mL added to 20 mL distilled water, room temperature",1.70
same,pH,"10% (w/v) solution, 1.6 mL added to 20 mL distilled water, room temperature",1.67
same,pH,"10% (w/v) solution, 1.7 mL added to 20 mL distilled water, room temperature",1.65
same,pH,"10% (w/v) solution, 1.8 mL added to 20 mL distilled water, room temperature",1.62
same,pH,"10% (w/v) solution, 1.9 mL added to 20 mL distilled water, room temperature",1.60
same,pH,"10% (w/v) solution, 2.0 mL added to 20 mL distilled water, room temperature",1.58
same,asymptotic pH,either 5% or 10% (w/v) acid solution,~1.1±0.1
same,pH,"solutions of at least 2.5% (w/v), according to the tabulated data",no more than 1.25
same,pH of water after addition,"tiny aliquot, less than 1% by volume, of either 5% or 10% (w/v) solution",below 3
